We go through 12 compounds from patent US9371336B2, “Compounds for treating spinal muscular atrophy” (PTC Therapeutics Inc., priority 2012, dated 2016).

In assay [1] the test system is Smn protein. Kind of assay: Smn protein assay (HTRF) in cultured cells (SMA patient fibroblasts GM03813). Type of assay: cell-based, human. Particulars: 48 hours; for EC1.5x for Smn protein expression: SMA patient fibroblast cells (GM03813), HTRF, 7-point concentration data, concentration producing 1.5 times Smn protein vs DMSO vehicle control; for maximum fold (Fold) increase of Smn protein: SMA patient fibroblast cells, 7-point concentration curve, relative to vehicle control. Here is the method:
The Smn HTRF (homogeneous time resolved fluorescence) assay is used to quantify the level of Smn protein in SMA patient fibroblast cells treated with test compounds.
Cells are thawed and cultured in DMEM-10% FBS for 72 hours. Cells are trypsinized, counted and re-suspended to a concentration of 25,000 cells/mL in DMEM-10% FBS. The cell suspension is plated at 5,000 cells per well in a 96 well microtiter plate and incubated for 3 to 5 hours. […] Test compounds are serially diluted 3.16-fold in 100% DMSO to generate a 7-point concentration curve. 1 μL of test compound solution is transferred to cell-containing wells and cells are incubated for 48 hours in a cell culture incubator (37° C., 5% CO2, 100% relative humidity). Triplicate samples are set up for each test compound concentration. After 48 hours, the supernatant is removed from the wells and 25 μL of the RIPA lysis buffer, containing protease inhibitors, is added to the wells and incubated with shaking at room temperature for 1 hour. 25 μL of the diluent is added and then 35 μL of the resulting lysate is transferred to a 384-well plate, where each well contains 5 μL of the antibody solution (1:100 dilution of anti-SMN d2 and anti-SMN kryptate in SMN reconstitution buffer). The plate is centrifuged for 1 minute to bring the solution to the bottom of the wells, then incubated overnight at room temperature. Fluorescence for each well of the plate at 665 nm and 620 nm is measured on an EnVision multilabel plate reader (Perkin-Elmer).
The normalized fluorescence signal is calculated for each sample, Blank and vehicle control well by dividing the signal at 665 nm by the signal at 620 nm. Normalizing the signal accounts for possible fluorescence quenching due to the matrix effect of the lysate. The ΔF value (a measurement of Smn protein abundance as a percent value) for each sample well is calculated by subtracting the normalized average fluorescence for the Blank control wells from the normalized fluorescence for each sample well, then dividing this difference by the normalized average fluorescence for the Blank control wells and multiplying the resulting value by 100. The ΔF value for each sample well represents the Smn protein abundance from test compound-treated samples. The ΔF value for each sample well is divided by the ΔF value for the vehicle control wells to calculate the fold increase in Smn protein abundance relative to the vehicle control.
Background: In TR-FRET formats the signal depends on donor and acceptor labels being close together.

The subject of assay [2] is SMN2 minigene mRNA (SMN2-A minigene construct). Kind of assay: SMN2 minigene mRNA splicing RT-qPCR assay in cultured cells. Type of assay: cell-based, human. Particulars: Homo sapiens, HEK293-H; HEK293H cells stably transfected with SMN2-A minigene, 24 hours, 7-point concentration data; concentration giving 1.5-fold SMN2 full length mRNA relative to vehicle-treated cells; read-out: EC1.5x for production of full length SMN2 mRNA. Here is the method:
The reverse transcription-quantitative PCR-based (RT-qPCR) assay is used to quantify the level of the full length SMN2 minigene mRNA containing SMN2 exon 7 in a HEK293H cell line stably transfected with said minigene and treated with a test compound.
HEK293H cells stably transfected with the SMN2-A minigene construct described above (10,000 cells/well) are seeded in 200 μL of cell culture medium (DMEM plus 10% FBS, with 200 μg/mL hygromycin) in 96-well flat-bottom plates and the plate is immediately swirled to ensure proper dispersal of cells, forming an even monolayer of cells. Cells are allowed to attach for at least 4-6 hours. Test compounds are serially diluted 3.16-fold in 100% DMSO to generate a 7-point concentration curve. A solution of test compound (1 μL, 200× in DMSO) is added to each cell-containing well and the plate is incubated for 24 hours in a cell culture incubator (37° C., 5% CO2, 100% relative humidity). Two replicates are prepared for each test compound concentration. The cells are then lysed in Cells-To-Ct lysis buffer and the lysate is stored at −80° C.
Primer SMN Forward A (SEQ ID NO. 1) hybridizes to a nucleotide sequence in exon 7 (nucleotide 22 to nucleotide 40), primer SMN Reverse A (SEQ ID NO. 2) hybridizes to a nucleotide sequence in the coding sequence of Firefly luciferase, SMN Probe A (SEQ ID NO. 3) hybridizes to a nucleotide sequence in exon 7 (nucleotide 50 to nucleotide 54) and exon 8 (nucleotide 1 to nucleotide 21). The combination of these three oligonucleotides detects only SMN1 or SMN2 minigenes (RT-qPCR) and will not detect endogenous SMN1 or SMN2 genes.
The SMN forward and reverse primers are used at final concentrations of 0.4 μM. The SMN probe is used at a final concentration of 0.15 μM. The GAPDH primers are used at final concentrations of 0.2 μM and the probe at 0.15 μM.
The SMN2-minigene GAPDH mix (15 μL total volume) is prepared by combining 7.5 μL of 2×RT-PCR buffer, 0.4 μL of 25×RT-PCR enzyme mix, 0.75 μL of 20×GAPDH primer-probe mix, 4.0075 μL of water, 2 μL of 10-fold diluted cell lysate, 0.06 μL of 100 μM SMN forward primer, 0.06 μL of 100 μM SMN reverse primer, and 0.225 μL of 100 μM SMN probe.
PCR is carried out at the following temperatures for the indicated time: Step 1: 48° C. (15 min); Step 2: 95° C. (10 min); Step 3: 95° C. (15 sec); Step 4: 60° C. (1 min); then repeat Steps 3 and 4 for a total of 40 cycles.
Each reaction mixture contains both SMN2-A minigene and GAPDH primers/probe sets (multiplex design), allowing simultaneous measurement of the levels of two transcripts.
Two SMN spliced products are generated from the SMN2 minigene. The first spliced product containing exon 7, corresponding to SMN2 full length mRNA, is referred to herein using the term “SMN2 minigene FL.” The second spliced product lacking exon 7 is referred to herein using the term “SMN2 minigene Δ7.”
The increase of SMN2 minigene FL mRNA relative to that in cells treated with vehicle control is determined from real-time PCR data using a modified ΔΔCt method (as described in Livak and Schmittgen, Methods, 2001, 25:402-8). The amplification efficiency (E) is calculated from the slope of the amplification curve for SMN2 minigene FL and GAPDH individually. The abundances of SMN2 minigene FL and GAPDH are then calculated as (1+E)^−Ct, where Ct is the threshold value for each amplicon. The abundance of SMN2 minigene FL is normalized to GAPDH abundance. The normalized SMN2 minigene FL abundance from test compound-treated samples is then divided by normalized SMN2 minigene FL abundance from vehicle-treated cells to determine the level of SMN2 FL mRNA relative to vehicle control.

Regarding `C[C@@H]1CN(c2ccc3cc(-c4cn5ccccc5n4)c(=O)oc3n2)CCN1.Cl` [Cpd 80, 3-(imidazo[1,2-a]pyridin-2-yl)-7-[(3R)-3-methylpiperazin-1-yl]-2H-pyrano[2,3-b]pyridin-2-one hydrochloride], in assay [1], the “EC1.5x for Smn protein expression” value is given as “**** (an EC1.5×≦0.3 μM is indicated by four stars (****))”; the “maximum fold (Fold) increase of Smn protein” value (“maximum fold (Fold) increase” for short) was “**** (a fold increase between >1.5 and ≦1.65 is indicated by four stars (****))”. The EC (1.5-fold) in assay [2] is ≤ 0.1 µM.
Consider `C[C@H]1CN(c2ccc3cc(-c4cn5cccc(F)c5n4)c(=O)oc3n2)CCN1` [Cpd 64, 3-(8-fluoroimidazo[1,2-a]pyridin-2-yl)-7-[(3S)-3-methylpiperazin-1-yl]-2H-pyrano[2,3-b]pyridin-2-one], for which, in assay [1], the “EC1.5x for Smn protein expression” value is on record as “**** (an EC1.5×≦0.3 μM is indicated by four stars (****))”; the “maximum fold (Fold) increase” value was “**** (a fold increase between >1.5 and ≦1.65 is indicated by four stars (****))”. The EC (1.5-fold) in assay [2] was ≤ 0.1 µM.
In the case of `Cc1cc(F)c2nc(-c3cc4ccc(N5C[C@@H]6C[C@H]5CN6)nc4oc3=O)cn2c1` [Cpd 136, 7-[(1S,4S)-2,5-diazabicyclo[2.2.1]hept-2-yl]-3-(8-fluoro-6-methylimidazo[1,2-a]pyridin-2-yl)-2H-pyrano[2,3-b]pyridin-2-one], in assay [1], the “EC1.5x for Smn protein expression” value was “*** (an EC1.5× between >0.3 μM and ≦1 μM is indicated by three stars (***))”; the “maximum fold (Fold) increase” value was “*** (a fold increase between >1.35 and ≦1.5 is indicated by three stars (***))”. In addition, the EC (1.5-fold) in assay [2] was ≤ 0.1 µM.
Regarding `Cc1ccn2cc(-c3cc4cnc(N5CCN(C)CC5)cc4oc3=O)nc2c1` [Cpd 57, 3-(7-methylimidazo[1,2-a]pyridin-2-yl)-7-(4-methylpiperazin-1-yl)-2H-pyrano[3,2-c]pyridin-2-one], the “maximum fold (Fold) increase” value in assay [1] was “** (a fold increase between >1.2 and ≦1.35 is indicated by two stars (**))”. In assay [2], the EC (1.5-fold) lay within 0.3 to 1 µM.
Turning to `Cc1cn2cc(-c3cc4ccc(N5C[C@H](C)NC[C@H]5C)nc4oc3=O)nc2cn1` [Cpd 102, 7-[(2R,5S)-2,5-dimethylpiperazin-1-yl]-3-(6-methylimidazo[1,2-a]pyrazin-2-yl)-2H-pyrano[2,3-b]pyridin-2-one], in assay [1], the “EC1.5x for Smn protein expression” value is on record as “**** (an EC1.5×≦0.3 μM is indicated by four stars (****))” and the “maximum fold (Fold) increase” value is listed as “***** (a fold increase >1.65 is indicated by five stars (*****))”. The EC (1.5-fold) in assay [2] was ≤ 0.1 µM.
On the same counts, the results for `Cl.O=c1oc2nc(N3CCNCC3)ccc2cc1-c1nc2c(Cl)cccc2s1` [Cpd 2, 3-(4-chloro-1,3-benzothiazol-2-yl)-7-(piperazin-1-yl)-2H-pyrano[2,3-b]pyridin-2-one hydrochloride] are “**** (an EC1.5×≦0.3 μM is indicated by four stars (****))”, “***** (a fold increase >1.65 is indicated by five stars (*****))” and ≤ 0.1 µM.
As for `Cc1cn2cc(-c3cc4cnc(N5CCNCC5)cc4oc3=O)nc2s1.Cl` [Cpd 41, 3-(2-methylimidazo[2,1-b][1,3]thiazol-6-yl)-7-(piperazin-1-yl)-2H-pyrano[3,2-c]pyridin-2-one hydrochloride], the “maximum fold (Fold) increase” value in assay [1] was “** (a fold increase between >1.2 and ≦1.35 is indicated by two stars (**))”. The EC (1.5-fold) in assay [2] lay within 0.3 to 1 µM.
For `Cc1ccc2nc(-c3cc4ccc(N5C[C@H](C)N(C)C[C@H]5C)nc4oc3=O)cn2c1` [Cpd 93, 3-(6-methylimidazo[1,2-a]pyridin-2-yl)-7-[(2R,5S)-2,4,5-trimethylpiperazin-1-yl]-2H-pyrano[2,3-b]pyridin-2-one], in assay [1], the “maximum fold (Fold) increase” value is “*** (a fold increase between >1.35 and ≦1.5 is indicated by three stars (***))”. The EC (1.5-fold) in assay [2] fell in the range of 0.3 to 1 µM.
Turning to `Cl.O=c1oc2nc(N3CCNCC3)ccc2cc1-c1cn2cccnc2n1` [Cpd 112, 3-(imidazo[1,2-a]pyrimidin-2-yl)-7-(piperazin-1-yl)-2H-pyrano[2,3-b]pyridin-2-one hydrochloride], in assay [1], the “EC1.5x for Smn protein expression” value is “** (an EC1.5× between >1 and ≦3 μM is indicated by two stars (**))”; the “maximum fold (Fold) increase” value is “*** (a fold increase between >1.35 and ≦1.5 is indicated by three stars (***))”. Besides, the EC (1.5-fold) in assay [2] is 0.1 to 0.3 µM.
With `Cl.O=c1oc2nc(N3CCNCC3)ccc2cc1-c1cn2ccsc2n1` [Cpd 44, 3-(imidazo[2,1-b][1,3]thiazol-6-yl)-7-(piperazin-1-yl)-2H-pyrano[2,3-b]pyridin-2-one hydrochloride], in assay [1], the “EC1.5x for Smn protein expression” value is “** (an EC1.5× between >1 and ≦3 μM is indicated by two stars (**))”; the “maximum fold (Fold) increase” value is “*** (a fold increase between >1.35 and ≦1.5 is indicated by three stars (***))”. The EC (1.5-fold) in assay [2] was ≤ 0.1 µM.
As to `Cl.O=c1oc2nc(N3CCNCC3)ccc2cc1-c1cn2ccccc2n1` [Cpd 28, 3-(imidazo[1,2-a]pyridin-2-yl)-7-(piperazin-1-yl)-2H-pyrano[2,3-b]pyridin-2-one hydrochloride], in assay [1], the “maximum fold (Fold) increase” value is “*** (a fold increase between >1.35 and ≦1.5 is indicated by three stars (***))”. Moreover, the EC (1.5-fold) in assay [2] was in the range of 0.1 to 0.3 µM.
For `Cc1ccc2nc(-c3cc4cnc(N5CCNCC5)cc4oc3=O)cn2c1` [Cpd 33, 3-(6-methylimidazo[1,2-a]pyridin-2-yl)-7-(piperazin-1-yl)-2H-pyrano[3,2-c]pyridin-2-one], in assay [1], the “EC1.5x for Smn protein expression” value was “* (An EC1.5× for Smn protein expression between >3 μM and ≦10 μM is indicated by one star (*))”; the “maximum fold (Fold) increase” value is “*** (a fold increase between >1.35 and ≦1.5 is indicated by three stars (***))”. Besides, the EC (1.5-fold) in assay [2] fell in the range of 1 to 3 µM.
